Our source for the hair growth values is patent publication EP0489581A2, “Cosmetic composition” (UNILEVER PLC, priority 1990, dated 1992).

The subject of this assay is hair growth. Nature of the assay: Observation of hair growth with ethyl nicotinate in a shampoo. In kind it is in vivo. The note with it: included in a shampoo, in the absence of any other hair growth promoter.

In the case of `CCOC(=O)c1cccnc1` [EtNic, ethyl nicotinate], the hair growth entry is “promote hair growth”.
